Test results taken from US5756505A, “N-acylpiperazine derivative, antibacterial drug and anti-ulcer drug” (Shiseido Co., Ltd., priority 1995, dated 1998).

Columns and labels:
[1] = tested on: stress ulcer formation; test: WIS: Restraint and Water Immersion Stress-Induced Ulcer Inhibition Test; assay type: in vivo, rat (male Crj:SD or Slc:SD); conditions: rat; for WIS: ulcer formation inhibitory rate: 100 mg/kg oral, 7 hours stress
Description: WIS: Restraint and Water Immersion Stress-Induced Ulcer Inhibition Test
The degree of inhibition of the stress ulcer formation is tested.
Male Crj:SDor Slc:SD rats (6 to 7-week-old) were fasted overnight, but allowed free access to water. Each group has 5 to 8 of these rats. The sample compound was dissolved or suspended in an aqueous solution of 0.3% sodium carboxymethylcellulose or 0.05% Tween 80 and then was orally administered (100 mg/10 ml/kg). To a control group, the vehicle was administered. 10 minuts later, the rats were placed in a stress cage and immersed to the level of xipfoid process in a water bath (21° C.) for 7 hours. At the end of the stress, the rats were sacrificed by inhalation of ether or carbon dioxide. Then, the stomach of each was removed, inflated by injecting 10 ml of 5% formalin neutral buffer solution, and immersed in 1% formalin neutral buffer solution for 30 minutes or more to be fixed. The stomach was incised along the greater curvature and then the length of each erosion in the glandular portion was determined under dissecting microscope. The sum of the length of erosions per stomach was defined as ulcer index (UI).
The effect obtained when 100 mg/kg of the sample compound had been administered was expressed as ulcer formation inhibitory rate (%) as follows:
ulcer formation inhibitory rate (%)=[1-(UI in sample group/UI in control group)]×100

[2] = MTT: Cell Damaging and Protecting Effect Test; assay type: cell-based, rabbit (male Japanese White); conditions: rabbit, gastric mucosal cells, final concentration 10^-4 M, 4 hours; smaller value is better; read-out: MTT: cell damaging rate
Text: MTT: Cell Damaging and Protecting Effect Test
It is confirmed that there is no toxicity in cell level. Those having a toxicity in cell level are inappropriate as an anti-ulcer drug.
A male Japanese White rabbit (2.5 to 3 kg) was anesthetized to death by Nembutal™ and, immediately thereafter, its stomach was removed. The greater curvature of the stomach was incised so as to remove the stomach contents therefrom. After the mucosal surface was washed with HBSS (Hanks' Balanced Salt Solution), the stomach in ice-cooled HBSS was transferred to a laboratory. Then, after the pyloric antrum was removed, the gastric corpus mucosa was separated by a spatula and then minced into 2 to 3 mm^3 pieces in BME (Basal Medium Eagle). Thereafter, these pieces were shaken at 120 to 130 cycles/minute for 15 minutes at 37° C. in BME 60ml containig 280 U/ml of dispase and 30 to 50 U/ml of collagenase. Here, the concentration of collagenase was appropriately changed for each lot in view of the state of cells. The pieces were washed twice with EBSS (Earle's Balanced Salt Solution) containing 1 mM of EDTA and then shaken in MEM (Minimum Essential Medium) containing 1 mM of EDTA at 37° C. for 5 minutes. Subsequently, they were shaken in the dispase and collagenase having the same concentrations as those mentioned above for 15 minutes so as to remove the supernatant and then further shaken at 37° C. for 50 to 60 minutes at 120 to 130 cycles/minute. Then, after being washed twice with HBSS, Ham F12 containing 2% of Ultrocer G™ was used to attain the concentration of 1×10^6 cells/ml. Thus formed suspension was dispensed in each well of a 96-well plate by 200 μl. The plate was incubated in the atmosphere composed of 5% CO2 and 95% air at 37° C. for three days so as to attain a confluent state and then subjected to MTT assay.
The sample compound was dissolved in DMSO so as to attain a concentration of 10^-2 M and then diluted with HBSS containing 2% of Ultrocer G™ so as to attain a final concentration of 10^-4 M. To each group, which 8 wells were used for, 10 μl of MTT reagent were added immediately after 100 μl of the medium in each well were exchanged for same volume of the resulting solution of the sample compound. After being incubated in an atmosphere composed of 5% CO2 and 95% air at 37° C. for 4 hours, thus formed solution was centrifuged and then its supernatant was discarded. Subsequently, 100 μl of 100% ethanol were added to the residue so as to dissolve MTT formazan. Then, the absorbance (OD: 570 to 630) was measured by a microplate reader. This method utilizes a phenomenon in which MTT is changed to MTT formazan only by mitochondria of living cells so as to change color.
The cell damaging or cell protecting effect of the sample compound at the final concentration of 10^-4 M was expressed as cell damaging rate (%) as follows:
cell damaging rate (%)=[1-(absorbance in sample group/absorbance in control group)]×100
Accordingly, the smaller value is better in the cell damaging rate.

[3] = tested on: isolated gastric fundic gland; test: CAP: Acid Secretion Inhibition Test In Vitro ([14C]-aminopyrine uptake); assay type: cell-based, rabbit (male Japanese White); conditions: Oryctolagus cuniculus, final concentration 10^-5 M, histamine 10^-5 M, rabbit gastric fundic gland; read-out: CAP: acid secretion inhibitory rate
Description: CAP: Acid Secretion Inhibition Test In Vitro
The acid secretion inhibitory activity in a cell level is studied. It can also be used for studying the mechanism of the effect. […]
ii-a) Preparation of isolated gastric fundus gland suspension
First, an isolated gastric fundic gland sample was prepared. Namely, a male Japanese White rabbit (2.5 to 3 kg) was anesthetized to death with Nembutal™ and then the abdomen was incised. Immediately thereafter, the stomach was removed and, after its pyloric and cardiac antrum were severed, incised along its greater curvature into two sheets. The gastric contents adhering to the mucosal surface was washed out with ice-cooled PBS (-) and then carefully washed therein. The gastric wall was spread on a cork board with its mucosal surface facing up and the feed and mucus thereon were completely removed with sterile gauze. The mucosa was separated therefrom by a spatula and then collected in ice-cooled PBS (-). After being washed twice with PBS (-), the mucosa was minced into 2-3mm^3 pieces by scissors. These pieces were further washed twice with a nutrient solution. The nutrient solution comprises 132.4 mM of NaCl, 5.4 mM of KCl, 5 mM of Na2 HPO4 ·12H2 O, 1 mM of NaH2 PO4 ·2H2 O, 1.2 mM of MgSO4, 1 mM of CaCl2, 25 mM of HEPES, 2mg/ml of glucose, and 1 mg/ml of BSA. Into 70 ml of the nutrient solution containing 1 mg/ml of collagenase, minced mucosal pieces were dispersed and intensely stirred in a conical flask with a stirrer at 37° C. for 40 to 60 minutes. During this period, 100% O2 was sprayed on the nutrient solution surface and the pH was appropriately measured such that it was immediately adjusted to pH 7.4, when the value was therebelow, with a base. The nutrient solution was added to the reaction solution so as to attain the total amount of about 200 ml. After being filtered through a mesh, the suspension was divisionally introduced into 50 ml centrifuge tubes and left for 15 minutes such that gastric fundic gland was deposited. The supernatant was repeatedly removed by an aspirator, dispersed in the nutrient solution, and then left such that the gastric fundic gland was washed three times. At this time, without using a pipette, the suspension was alternately introduced into two centrifuge tubes so as to effect dispersion. The number of cells was counted under microscope and adjusted to 1.6×10^6 cells/ml. […]
ii-b) [^14 C]-aminopyrine uptake test
Then, [^14 C]-aminopyrine uptake test was performed. After an Eppendorf tube was weighed, 10 μl (final concentration: 10^-5 M) of histamine dissolved in the above-mentioned nutrient solution, 10 μl (final concentration: 10^-5 M) of the test compound dissolved in DMSO, and 10 μl (final concentration: 0.05 μCi/ml) of [^14 C]-aminopyrine diluted with the nutrient solution were introduced therein and then 970 μl of the isolated gastric fundic gland suspension prepared above were added thereto. Subsequently, this mixture was shaken at 37° C. for 40 minutes at 125 cycles/minute. After being centrifuged for 30 minutes 200 μl of its supernatant was collected into a mini-vial, while the rest was removed by an aspirator. The gland pellet was completely dried as the tube with its lid being opened was kept for one night in a drying oven at 80° C. and then the lid was closed and the weight was determined at room temperature. Then 100 μl of 1N KOH were added thereto and the tube with its lid being closed was treated at 60° C. for 1 to 2 hours so as to dissolve the pellet. Then, the contents thereof were transferred to a mini-vial. Into the mini-vial containing the supernatant or gland pellet, 4 ml of Atomlite™ were added and then the radioactivity was measured by a liquid scintillation counter. Here, after the radioactivity of the gland pellet was corrected by using a sample in which 20 mM of NaSCN were added so as to cancel the hydrogen ion concentration gradient, the integration ratio of aminopyrine specifically trapped by the gland pellet was calculated. […]

[4] = cited from earlier work

CC(C)CN1CCN(C(=O)c2ccc(OCc3ccc(F)cc3)c(N)c2)CC1.Cl.Cl [Example 1, 1-[3-amino-4-(4-fluorobenzyloxy)benzoyl]-4-isobutylpiperazine dihydrochloride]
WIS: ulcer formation inhibitory rate [1]: 88%

COc1cc(C(=O)N2CCN(CC(C)C)CC2)ccc1OCc1ccc(F)cc1.Cl [Example 7, 1-[4-(4-fluorobenzyloxy)-3-methoxybenzoyl]-4-isobutylpiperazine hydrochloride]
cytotoxicity at 4 h, 100 µM [2]: -72%
inhibition at 10 µM [3]: 100%
WIS: ulcer formation inhibitory rate [1]: 48%

CC(C)Cc1cc(C(=O)N2CCN(CCOC(=O)c3ccc4c(c3)OCO4)CC2)ccc1OCc1ccc(F)cc1 [Example 10, 1-[4-(4-fluorobenzyloxy)-3-isobutylbenzoyl]-4-[2-(piperonyloyloxy)ethyl]piperazine]
cytotoxicity at 4 h, 100 µM [2]: 34%
inhibition at 10 µM [3]: 100%
WIS: ulcer formation inhibitory rate [1]: 54%
anti-ulcer effect (in words) ([1]; in vivo): sufficient effects

CC(C)Cc1cc(C(=O)N2CCN(CC(C)C)CC2)ccc1OCc1ccc(C#N)cc1.Cl [Example 11, 1-[4-(4-cyanobenzyloxy)-3-isobutylbenzoyl]-4-isobutylpiperazine hydrochloride]
cytotoxicity at 4 h, 100 µM [2]: -77%
inhibition at 10 µM [3]: 100%
WIS: ulcer formation inhibitory rate [1]: 94%

Cc1c(N(C)C)c(=O)n(-c2ccccc2)n1C [aminopyrine]
pKa [4]: 5.0
